In US6284910A, “Farnesyl pyrophosphate analogs” (University of Kentucky Research Foundation, priority 1999, dated 2001):
“Also recorded” adds a separate entry of the source.

What was measured:
GGTase I = experiment: Transfer of [^3 H]AGPP by GGTase I to H-Ras-CVLL; type: biochemical
FTase = FTase (Rattus norvegicus, UniProt Q02293+Q04631); experiment: FTase-catalyzed transfer of labeled FPP analogs to p21^H-ras (substrate assay); type: biochemical; design: H-Ras is only the protein substrate; details: for transfer to p21^H-ras by FTase, in words: in vitro
Description: FIG. 4. Transfer of Anilinogeranyl from [^3 H]AGPP to p21^Ha-ras by Farnesyltransferase. (A) Each reaction contained 1 μM [^3 H]AGPP (37,400 dpm/pmol) and 10 ng of recombinant FTase in the absence (triangles) or presence (circles) of 5 μM p21^Ha-ras Duplicate samples were incubated for the indicated times at 37° C., and ethanol-HCl precipitated radioactivity was measures as described under "Experimental Procedures". […] The gel was treated with Amplify solution (Amersham), dried, and exposed to Kodak X-OMAT AR film for 2 days at -70° C. The migration of molecular weight markers placed in a adjacent lane is shown. (B) The AGPP substrate saturation curve for FTase was determined by varying the amount of [^3 H]AGPP in the standard reaction described above. Assays were carried out in duplicate for 30 min at 37° C., and the ethanol-HCl precipitable radioactivity measured. The data is representative of three independent experiments.
FIG. 5. […] Farnesyltransferase (10 ng) was incubated in a final volume of 25 μl in the presence of 1.0 μM [^3 H]AGPP or [^3 H]FPP and 5 μM wild-type p21^Ha-ras. After incubation for 30 min at 37° C., the amount of [^3 H]prenyl transferred to p21^Ha-ras was determined as described under "Experimental Procedures". Each value is the average of duplicate incubations and is representative of five separate experiments.
Assay for Farnesyltransferase Activity--Farnesyltransferase activity was assayed by measuring the amount of [^3 H]farnesyl or [^3 H]anilinogeranyl transferred from [^3 H]FPP or [^3 H]AGPP to recombinant p21^H-ras, as described previously (31). Unless otherwise stated, each reaction mixture contained the following components in a final volume of 25 μl: 50 mM Tris (pH 7.4), 20 mM KCl, 0.2% octyl β-glucopyranoside, 1 mM dithiothreitol, 10-20 ng recombinant FTase, 5 μM p21^Ha-ras, 3 mM MgCl2, 50 μM ZnCl2, and 0.6 μM [^3 H]FPP (33,000 dpm/pmol; American Radiochemical Co.) or 0.1-5 μM [^3 H]AGPP (37,400 dpm/pmol). Following incubation for the indicated times at 37° C., the amount of [^3 H]prenyl transferred was measured by ethanol-HCl precipitation and filtration on glass fiber filters with modification as previously described (19). A blank value was determined in parallel incubation mixtures containing no enzyme. This blank value was subtracted from each reaction before calculating pmol [^3 H]prenyl transferred.
The observed inhibition kinetics could be a manifestation of the ability of AGPP to act as an alternative substrate for FTase. To evaluate the potential of AGPP to serve as a substrate of FTase, [^3 H]-AGPP was prepared by a similar route as described above, incorporating tritium with a specific activity of 17 Ci/mmol (synthesis to be reported elsewhere). […] The incorporated radioactivity was detected as a band of the expected molecular weight of farnesylated p21^H-ras on SDS-polyacrylamide gels (FIG. 4A, inset). […] The concentration of [^3 H]AGPP that gave half-maximal reaction velocity was approximately 0.5 μM (FIG. 4B).
FIG. 5 depicts transfer of unnatural anilinogeranyl lipid from [^3 H]AGPP and transfer of farnesyl lipid from [^3 H]FPP to H-Ras by FTase. Farnesyltransferase (10 ng) was incubated in a final volume of 25 μl in the presence of 1.0 μM [^3 H]AGPP or [^3 H]FPP and 5 μM wild-type H-Ras. After incubation for 30 min. at 37° C., the amount of [^3 H]prenyl transferred to H-Ras was determined by ethanol-HCl precipitation and scintillation counting. Each value is the average of duplicate incubations and is representative of five separate experiments.

C/C(=C\COP(=O)(O)OP(=O)(O)O)CC/C=C(\C)CNc1ccccc1 [AGPP, (E,E)-8-Aniline-3,7-dimethyl-2,6-octadiene pyrophosphate]
transfer by GGTase I, in words (GGTase I): transferred by GGTase I to H-Ras-CVLL with a low efficiency | transfer to p21^H-ras by FTase, in words (FTase; 37° C.): transferred efficiently | transfer to p21^H-ras by FTase, in words (FTase; 37° C., listed as [^3 H]-AGPP): kinetics of transfer are identical to those of FPP | transfer to p21^H-ras by FTase, in words (FTase; 37° C., listed as [^3 H]AGPP): time dependent fashion; also recorded: transferred appropriately to p21^H-Ras by FTase | transfer to p21^H-ras lacking the CVLS motif (FTase; recombinant p21^H-ras with CVLS removed): eliminated the incorporation of tritium into the protein | concentration that gave half-maximal reaction velocity (FTase; transfer to p21^H-ras, 37° C., 30 min): approximately 0.5 μM
